Reference: patent publication EP0086092A2, “Antifungal compositions” (priority 1982, dated 1983)
“And” between values parts separate entries of the source, which are not always exact repeats. Equal values may be shown once. Marks after values point to notes of the source that are not given here.

Test system: Candida albicans B 311
Assay: disc diffusion, zone of inhibition on seeded agar plates
Assay type: cell-based
Conditions: for Zone Size Sabouarud Agar / Zone Size YNB agar: Table II, 37°C; for Zone Size Sabouarud Agar: Sabouarud dextrose agar; for Zone Size Sabouarud Agar / Zone Size YNB agar / Zone Size / Zone Size B 311: 16-18 h; for Zone Size YNB agar: lysine; for Zone Size: Table I, glucose as carbon source, composition of 1 unit by weight aculeacin A + 5 units fatty acid; for Zone Size YNB agar / Zone Size: YNB agar; for Zone Size / Zone Size B 311: 28-37°C
Method: The antifungal activity of aculeacin A and the compositions of aculeacin A and fatty acids was measured by disc diffusion.
The effects of a number of fatty acids on the antifungal activity of aculeacin A were determined by utilizing seeded plates of Candida albicans B 311 in yeast nitrogen base (YNB) agar (Difco) with glucose as the carbon source. A composition containing one unit by weight of aculeacin A and 5 units of fatty acid or the sodium salt thereof was spotted on the seeded plates and the size of the zone of inhibition after 16-18 hours incubation at 28-37 °C was measured.
Additional fatty acids were tested to determine , if they increased the intrinsic activity of aculeacin A against C. albicans B 311 utilizing seeded plates of YNB agar (Difco) with lysine as the carbon source and seeded plates of Sabouarud dextrose agar (Difco). Compositions containg one µg of aculeacin A and various amounts of the fatty acid was spotted on the seeded plates and the size of the zone of inhibition after 16-18 hours incubation at 37 °C was measured.
The antifungal effects of compositions containing a single amount of oleic acid as the sodium salt while varying the amounts of aculeacin A were determined by utilizing seeded plates of Candida albicans B 311 in Sabouarud dextrose agar and measuring the zone of inhibition after 16-18 hours incubation at 28-37°C.
The antifungal effects of compositions containing a single amount of aculeacin A while varying the amounts. of oleic acid as the sodium salt were determined by utilizing seeded plates of Candida albicans strains B 311, BC 759 and B 3153A and measuring the zone of inhibition after 16-18 hours at 28-37°C. This test was also performed with linoleic acid and linolenic acid.
The seeded plates of Candida albicans strains B 311, BC 759, and B 3153A were prepared by inoculating 50 ml of trypticase soy broth (BBL) with one ml of the preserved frozen culture and incubating the inoculum at 37°C for 7 hours on a rotary shaker. Two milliliters of this culture were used to inoculate one liter of Sabouarud dextrose agar (Difco) at 50°C and 15 milliliters of the resultant medium poured into 150 mm petri-dishes.

[1] = aculeacin A 0 µg, fatty acid 250 µg alone
[2] = aculeacin A 0 µg, fatty acid 500 µg alone
[3] = aculeacin A 0 µg, fatty acid 1000 µg alone
[4] = composition of aculeacin A 1 µg + fatty acid 250 µg
[5] = composition of aculeacin A 1 µg + fatty acid 500 µg
[6] = composition of aculeacin A 1 µg + fatty acid 1000 µg
[7] = Tables IV-b, IV-c, aculeacin A 0 µg, fatty acid 28.1 µg alone
[8] = Tables IV-b, IV-c, aculeacin A 0 µg, fatty acid 56.2 µg alone
[9] = Tables IV-b, IV-c, aculeacin A 0 µg, fatty acid 112.5 µg alone
[10] = Tables IV-b, IV-c, aculeacin A 0.625 µg + fatty acid 28.1 µg
[11] = Tables IV-b, IV-c, aculeacin A 0.625 µg + fatty acid 56.2 µg
[12] = Tables IV-b, IV-c, aculeacin A 0.625 µg + fatty acid 112.5 µg
[13] = aculeacin A 0 µg, fatty acid 2000 µg alone
[14] = composition of aculeacin A 1 µg + fatty acid 2000 µg
[15] = aculeacin A 0 µg, fatty acid 50 µg alone
[16] = aculeacin A 0 µg, fatty acid 100 µg alone
[17] = aculeacin A 0 µg, fatty acid 200 µg alone
[18] = composition of aculeacin A 1 µg + fatty acid 50 µg
[19] = composition of aculeacin A 1 µg + fatty acid 100 µg
[20] = composition of aculeacin A 1 µg + fatty acid 200 µg

Compound | Zone Size Sabouarud Agar [1] | Zone Size Sabouarud Agar [2] | Zone Size Sabouarud Agar [3] | Zone Size Sabouarud Agar [5] | Zone Size Sabouarud Agar [6] | Zone Size YNB agar [1] | Zone Size YNB agar [2] | Zone Size YNB agar [3] | Zone Size YNB agar [5] | Zone Size YNB agar [6] | Zone Size | also measured
CCCCC/C=C\C/C=C\C/C=C\C/C=C\CCCC(=O)O [Arachidonic Acid] | 0 mm | 0 mm | 0 mm | 20* mm | 20* mm | 0 mm | 0 mm | 0 mm | 20 mm | 26 mm |  | Zone Size Sabouarud Agar [4]: 20* mm; Zone Size YNB agar [4]: 20 mm
CCCCCCCCCCCCCCCCCCCCCC(=O)O [Behenic Acid] | 0 mm | 0 mm | 0 mm | 14 mm | 20 mm | 0 mm | 0 mm | 0 mm | 14 mm | 15 mm |  | Zone Size Sabouarud Agar [4]: 15 mm; Zone Size YNB agar [4]: 14 mm
CCCCCCCC(=O)O [Caprylic Acid] |  |  |  |  |  |  |  |  |  |  | 16 mm | 
CCCCCCCCCC(=O)O [Decanoic Acid] |  |  |  |  |  |  |  |  |  |  | 17 mm | 
CCCCCCCC/C=C/CCCCCCCC(=O)O [Eladic Acid] | 0 mm | 0 mm | 0 mm | 15 mm | 13 mm | 0 mm | 0 mm | 0 mm | 13 mm | 13 mm |  | Zone Size Sabouarud Agar [4]: 18 mm; Zone Size YNB agar [4]: 13 mm
CCCCCCCC/C=C\CCCCCCCCCCCC(=O)O [Erucic Acid] | 0 mm | 0 mm | 0 mm | 17 mm | Trace | 0 mm | 0 mm | 0 mm | 15 mm and 17 mm | 15 mm |  | 
CCCCCCCCCCCC(=O)O [Lauric Acid] |  |  |  |  |  |  |  |  |  |  | 22 mm | 
CCCCC/C=C/C/C=C/CCCCCCCC(=O)O [Linoelaidic Acid] | 0 mm | 0 mm | 0 mm | 20* mm | 24* mm | 0 mm | 0 mm | 0 mm | 17 mm | 16 mm |  | Zone Size Sabouarud Agar [4]: 20* mm; Zone Size YNB agar [4]: 26 mm; increase in the intrinsic activity of aculeacin A (composition of 250 units by weight fatty acid to one unit aculeacin A, Table II test): surprising increase in the intrinsic activity of aculeacin A
CCCCC/C=C\C/C=C\CCCCCCCC(=O)O [Linoleic Acid] |  |  |  |  |  |  |  |  |  |  | 23 mm | Zone Size B 311 (Table IV-b, aculeacin A 0 µg, fatty acid 225 µg alone): Trace; Zone Size B 311 (Table IV-b, aculeacin A 0.625 µg + fatty acid 225 µg): 19 mm; Zone Size B 311 [7]: 0 mm; Zone Size B 311 [8]: 0 mm; Zone Size B 311 [9]: 0 mm; Zone Size B 311 [10]: 22 mm; Zone Size B 311 [11]: 22 mm; Zone Size B 311 [12]: 21 mm
CC/C=C\C/C=C\C/C=C\CCCCCCCC(=O)O [Linolenic Acid] |  |  |  |  |  |  |  |  |  |  | 22 mm | Zone Size B 311 [7]: 0 mm; Zone Size B 311 [8]: 0 mm; Zone Size B 311 [9]: 0 mm; Zone Size B 311 [10]: 20 mm; Zone Size B 311 [11]: 19 mm; Zone Size B 311 [12]: 19 mm
CCCCCCCCCCCCCC(=O)O [Myristic Acid] |  |  |  |  |  |  |  |  |  |  | 16 mm | 
CCCCCC/C=C/CCCCCCCC(=O)O [Palmitelaidic Acid] |  | 0 mm | 0 mm | 30 mm | 32 mm |  | 0 mm | 0 mm | 20 mm | 20 mm |  | Zone Size Sabouarud Agar [13]: 0 mm; Zone Size Sabouarud Agar [14]: 25 mm; Zone Size YNB agar [13]: 0 mm; Zone Size YNB agar [14]: 22 mm
CCCCCCCCCCCCCCCC(=O)O [Palmitic Acid] |  |  |  |  |  |  |  |  |  |  | 15 mm | 
CCCCCC/C=C\CCCCCCCC(=O)O [Palmitoleic Acid] |  |  |  |  |  |  |  |  |  |  | 26 mm | 
CCCCCCCCCCCCCCCCCC(=O)O [Stearic Acid] |  |  |  |  |  |  |  |  |  |  | 15 mm | 
CCCCCC/C=C/CCCCCCCCCC(=O)O [Vaccinic Acid] |  | 0 mm | 0 mm | 25 mm | 25 mm |  | 0 mm | 0 mm | 17 mm | 17 mm |  | Zone Size Sabouarud Agar [13]: 0 mm; Zone Size Sabouarud Agar [14]: 26 mm; Zone Size YNB agar [13]: 0 mm; Zone Size YNB agar [14]: 17 mm
CCCCCCCCCCC(O)C(=O)O (stereo not drawn) [α-Hydroxy Lauric Acid] | Trace | 10 (hazy) mm | 10 (hazy) mm | 15 mm | 20 mm | Trace | Trace | Trace | 24 mm | 25 mm |  | Zone Size Sabouarud Agar [4]: 15 mm; Zone Size YNB agar [4]: 20 mm
Homo-γ-Linoleic Acid |  |  |  |  |  |  |  |  |  |  |  | Zone Size Sabouarud Agar [15]: 0 mm; Zone Size Sabouarud Agar [16]: 0 mm; Zone Size Sabouarud Agar [17]: 0 mm; Zone Size Sabouarud Agar [18]: 15 mm; Zone Size Sabouarud Agar [19]: 15 mm; Zone Size Sabouarud Agar [20]: 15 mm; Zone Size YNB agar [15]: 0 mm; Zone Size YNB agar [16]: 0 mm; Zone Size YNB agar [17]: 0 mm; Zone Size YNB agar [18]: 15* mm; Zone Size YNB agar [19]: 15* mm; Zone Size YNB agar [20]: 17* mm
